# Columns and labels:
# B-Cell 8392 = assay: Inhibition of B-Cell 8392 growth in vitro; assay type: cell-based, human; settings: 48 h; Human B-Cell 8392; read-out: ED50 (the source's name)
# Procedure: (§1) Logarithmically growing L1210 cells (approximately 3×10^5 cells/ml) were diluted with Fischer's medium (containing 10% horse serum) to an approximate concentration of 5×10^4 cells/ml. Cells were planted in duplicate into 15 ml culture tubes containing either no drug or various amounts of drug, and incubated for 48 hours at 37° C. before being counted.
# (§2) Trimetrexate was also evaluated in a similar manner side-by-side with methotrexate for its effect on the growth of three additional murine cell lines (L5178Y, Sarcoma-180, and Walkler-256) and three human cell lines (acute myelogenous leukemia K-562, T-cell 8402, and B-cell 8392), propagated in vitro.
# P388 = assay: Antitumor activity against P388 leukemia in mice; assay type: in vivo, mouse; settings: for Life Span % ILS / Life Span % T/C: optimal dose 40 mg/kg (dose range 80-2.5), ip daily, Days 1-9
# Procedure: (§3) The growth inhibition properties of 5-methyl-6-[[(3,4,5-trimethoxyphenyl)amino]methyl]-2,4-quinazolinediamine (trimetrexate) against several transplanted murine tumors were evaluated employing the antitumor screening program of the Drug Evaluation Branch of the National Cancer Institute. The protocols for these tests is described in Cancer Chemotherapy Reports, 3: 1-103 (1972). The dosing schedules are results from these tests appear in Table IV.
# In the L1210, P388, and B-16 melanoma models, results are expressed as a percentage of median control survival time. Percentage of increase in survival time and/or cures (30 day survivors) were the parameters used to measure the effectiveness of the agents. An initial median survival value for treated over control percentage (% T/C) equal to or greater than 125% was considered indicative of activity. For confirmatory activity, two multidose assays must show % T/C values equal to or greater than 150%.
# (§4) Percent increase in median life span (% ILS) values appearing in the tables were calculated from the formula; 100×(median life span in days of treated mice minus median life span in days of untreated mice) divided by median life span in days of untreated control mice. That is, % ILS=[100×(T-C)]/C. % T/C and %ILS are directly interconvertible by the formula % ILS=% T/C -100.
# L1210 Leukemic Cells (10^5 /mouse) and P388 leukemic cells (10^6 /mouse)were in the ascites form and were transferred to BD2F1 or CD2F1 mice by intraperitoneal (ip) injection of 0.1 ml of cells taken from animals bearing 6- to 7-day old tumors. Leukemic cells were injected ip one day prior to the start of treatment.
# (§5) In all of the mouse tumor studies described above, routine controls consisted of matching ten normal mice (with no tumors) to each tumor-bearing treatment group and injecting them with the same drug at the same dosages, schedules, days of administration, and drug route as the tumor-bearing mice. In this way, drug-induced toxicity (lethality and weight loss) could be clearly separated from the effects of the drug on the tumors.
# Renal tumor = assay: Human tumor cloning system, renal tumors; assay type: cell-based; settings: one hour, 6 specimens
# Excerpt: (§6) The activity of trimetrexate was compared with that of methotrexate in tests with a human tumor cloning system (Latham, et al., Proc. Am. Assoc. Cancer Res., 24: 278 (1983)). The data from these tests appear in Table III were the activities are expressed as the numbers of tumors with 50% or greater reduction in tumor colony forming units after one hour exposure to the drug.
# Colon tumor = assay: Human tumor cloning system, colon tumors; assay type: cell-based; settings: one hour, 9 specimens
# Excerpt: as §6
# AML K-562 = assay: Inhibition of AML K-562 cell growth in vitro; assay type: cell-based, human; settings: K562, 48 h; Human AML K-562; read-out: ED50 (the source's name)
# Procedure: as §1, §2
# Lung tumor = assay: Human tumor cloning system, lung tumors; assay type: cell-based; settings: one hour, 8 specimens
# Excerpt: as §6
# CD8F1 Mammary tumor = assay: Antitumor activity against CD8F1 mammary tumor in mice; assay type: in vivo, mouse; settings: for Tumor Weight Inhibition % TWI: Sc every 7 days, Days 1,8,15,22,19
# Procedure: as §3
# Mouse Mammary Tumor Was propagated in CD8F1 female mice as spontaneous tumors. Approximately 10^6 cells were then implanted subcutaneously into CD8F1 mice. […] At the end of the experiment (30 days), individual tumor weights were determined by caliper measurements. Each tumor weight was calculated as described previously for colon 26 and 38 tumors. A criterion of % T/C tumor weight of 42% or less was considered indicative of activity, with a reproducible 10% T/C tumor weight or less indicative of substantive activity.
# as §5
# human tumor cultures = assay: Human tumor cloning system, all tumors; assay type: cell-based; settings: for Number of Tumors with 50% or Greater Decrease in Tumor Colony Forming Units: Totals, one hour, 54 specimens
# Excerpt: as §6
# L5178Y = assay: Inhibition of L5178Y cell growth in vitro; assay type: cell-based, murine
# Procedure: Two leukemia cell lines (L1210 and L5178Y) and two solid tumor cell lines (Sarcoma 180 and Walker 256) were used in these studies.
# as §1, §2
# Ovarian tumor = assay: Human tumor cloning system, ovarian tumors; assay type: cell-based; settings: one hour, 6 specimens
# Excerpt: as §6
# Lewis lung carcinoma = assay: Antitumor activity against Lewis lung carcinoma in mice; assay type: in vivo, mouse; settings: optimal dose 40 mg/kg (dose range 40-1.25), IV daily, Days 1-9
# Procedure: as §3, §4, §5
# Melanoma = assay: Human tumor cloning system, melanoma; assay type: cell-based; settings: one hour, 5 specimens
# Excerpt: as §6
structure (smiles),measurement,setting,value
"COc1cc(NCc2ccc3nc(N)nc(N)c3c2C)cc(OC)c1OC [Trimetrexate, 5-methyl-6-[[(3,4,5-trimethoxyphenyl)amino]methyl]-2,4-quinazolinediamine]",IC50,B-Cell 8392,5 nM
same,antitumor activity,"P388; mouse, in vivo",good activity
same,Life Span % ILS,P388; first line,143%
same,Life Span % T/C,P388; first line,243%
same,Life Span % ILS,P388; second line,142%
same,Life Span % T/C,P388; second line,242%
same,Number of Tumors with 50% or Greater Decrease in Tumor Colony Forming Units,Renal tumor; trimetrexate 0.1 μg/ml,1
same,Number of Tumors with 50% or Greater Decrease in Tumor Colony Forming Units,Renal tumor; trimetrexate 1.0 μg/ml,1
same,Number of Tumors with 50% or Greater Decrease in Tumor Colony Forming Units,Colon tumor; trimetrexate 0.1 μg/ml,4
same,Number of Tumors with 50% or Greater Decrease in Tumor Colony Forming Units,Colon tumor; trimetrexate 1.0 μg/ml,4
same,IC50,AML K-562,10 nM
same,Number of Tumors with 50% or Greater Decrease in Tumor Colony Forming Units,Lung tumor; trimetrexate 0.1 μg/ml,1
same,Number of Tumors with 50% or Greater Decrease in Tumor Colony Forming Units,Lung tumor; trimetrexate 1.0 μg/ml,1
same,Tumor Weight Inhibition % TWI,CD8F1 Mammary tumor; optimal dose 120 mg/kg (dose range 120-3.75),100%
same,Tumor Weight Inhibition % TWI,CD8F1 Mammary tumor; optimal dose 180 mg/kg (dose range 270-35),100%
same,antitumor activity,CD8F1 Mammary tumor; subcutaneously implanted,good activity
same,Number of Tumors with 50% or Greater Decrease in Tumor Colony Forming Units,human tumor cultures; trimetrexate 0.1 μg/ml,11
same,Number of Tumors with 50% or Greater Decrease in Tumor Colony Forming Units,human tumor cultures; trimetrexate 1.0 μg/ml,13
same,human tumor cultures sensitive to trimetrexate and resistant to methotrexate,"human tumor cultures; trimetrexate 0.1 μg/ml, methotrexate 0.3 μg/ml, 8/54",15%
same,IC50,"L5178Y; Mus musculus, 48 h, Murine L5178Y, read-out: ED50 (the source's name)",2 nM
same,potency relative to methotrexate,L5178Y; on a molar basis,only slightly more effective on a molar basis
same,Number of Tumors with 50% or Greater Decrease in Tumor Colony Forming Units,Ovarian tumor; trimetrexate 0.1 μg/ml,1
same,Number of Tumors with 50% or Greater Decrease in Tumor Colony Forming Units,Ovarian tumor; trimetrexate 1.0 μg/ml,1
same,Life Span % T/C,Lewis lung carcinoma,Negligible
same,Number of Tumors with 50% or Greater Decrease in Tumor Colony Forming Units,Melanoma; trimetrexate 0.1 μg/ml,2
same,Number of Tumors with 50% or Greater Decrease in Tumor Colony Forming Units,Melanoma; trimetrexate 1.0 μg/ml,3

# Reference: patent publication US4853221A, “Method for treating non-small cell lung cancer, head and neck cancers and breast cancer” (Warner-Lambert Company, priority 1987, dated 1989)
